Assay [1] concerns MCF-7 breast cancer. Details: method as in PMID 36364539. To be noted: MCF-7, MTT test; cited from earlier work. Background: Tetrazolium assays rely on reduction of a dye to a coloured formazan, in cell work by metabolically active cells.
Assay [2] deals with A2780 ovarian cancer. Kind of assay: MTT viability assay. It is filed as cell-based, Human. To be noted: 72 h. On the procedure:
(§1) Human cell lines (A375 melanoma, MCF-7 breast cancer, HCT116 colorectal carcinoma, A2780 ovarian cancer, and MRC5 lung fibroblasts) were purchased from American Type Culture Collection (Rockville, MD, USA).
(§2) The A2780 cells were cultivated in DMEM, while all of the other cell lines were cultivated in the HEPES-buffered RPMI-1640 medium. The cell culture mediums were supplemented with penicillin (100 units/mL), streptomycin (100 μg/mL), and 10% inactivated FBS. All of the cells were cultivated at 37 °C in a humidified atmosphere with 5% CO2.
(§3) The cells were seeded overnight in 96-well plates: A2780 and MRC-5 8 × 10^3 cells/well, HCT 116 6 × 10^3 cells/well, A375 5 × 10^3 cells/well, and MCF-7 at 10 × 10^3 cells/well [58]. All of the cells were treated with the following concentrations of investigated compounds: 100, 50, 25, 12.5, 6.25, 3.125, and 1.56 μM, except for the A2780 cells, which were treated with the following concentrations for the Cu compound only: 25, 12.5, 6.25, 3.125, 1.56, 0.78, and 0.39 μM. After 72 h of treatment, viability assays were conducted.

Assay [3] concerns MRC5 lung fibroblasts. Kind of assay: MTT viability assay. It is filed as cell-based, Human. To be noted: 72 h. The procedure:
as §1, §2, §3

Assay [4] deals with MCF-7 breast cancer. Kind of assay: MTT viability assay. It is filed as cell-based, Human. Conditions: MCF-7, MTT, 72 h. On the procedure: as §1, §2, §3
Assay [5] has as its system HCT116 colorectal carcinoma. Kind of assay: MTT viability assay. Type of assay: cell-based, Human. Conditions: 72 h. The procedure: as §1, §2, §3
Assay [6] has as its system A375 melanoma. Kind of assay: MTT viability assay. Type of assay: cell-based, Human. Conditions: 72 h. The procedure:
as §1, §2, §3

For assay [7], the system named is A2780 ovarian cancer. Kind of assay: CV viability assay. Type of assay: cell-based, Human. To be noted: 72 h. The procedure:
as §1, §2, §3

The test system of assay [8] is MRC5 lung fibroblasts. Kind of assay: CV viability assay. It is filed as cell-based, Human. Conditions: 72 h. The procedure:
as §1, §2, §3

In assay [9] the test system is MCF-7 breast cancer. Kind of assay: CV viability assay. Type of assay: cell-based, Human. Conditions: MCF-7, CV, 72 h. On the procedure:
as §1, §2, §3

In assay [10] the test system is HCT116 colorectal carcinoma. Kind of assay: CV viability assay. Type of assay: cell-based, Human. Conditions: 72 h. The procedure:
as §1, §2, §3

The test system of assay [11] is A375 melanoma. Kind of assay: CV viability assay. Type of assay: cell-based, Human. To be noted: 72 h. On the procedure: as §1, §2, §3
In assay [12] the target is human serum albumin (HSA) (Homo sapiens, UniProt P02768). Kind of assay: Spectrofluorometric titration, binding to HSA. Conditions: for ΔHb / ΔSb: van't Hoff, 300-310 K. The procedure: (§4) The binding affinities of complexes towards bovine serum albumin (BSA) and human serum albumin (HSA) were analyzed using the spectrofluorometric measurements on the Cary Eclipse MY2048CH03 instrument. The scan rate was set to 600 nm min^−1, with both slits being 5 nm. The excitation wavelength for BSA was set to 295 nm and for HSA to 280 nm. These wavelengths are characteristic of the tryptophan residues in the active pocket of proteins. The spectra were recorded from 310 to 500 nm. The concentration of both proteins was held constant at 5 × 10^−6 M, and prepared in 1 M phosphate buffer saline of pH 7.4.
human serum albumin (HSA), sequence (P02768 25-609): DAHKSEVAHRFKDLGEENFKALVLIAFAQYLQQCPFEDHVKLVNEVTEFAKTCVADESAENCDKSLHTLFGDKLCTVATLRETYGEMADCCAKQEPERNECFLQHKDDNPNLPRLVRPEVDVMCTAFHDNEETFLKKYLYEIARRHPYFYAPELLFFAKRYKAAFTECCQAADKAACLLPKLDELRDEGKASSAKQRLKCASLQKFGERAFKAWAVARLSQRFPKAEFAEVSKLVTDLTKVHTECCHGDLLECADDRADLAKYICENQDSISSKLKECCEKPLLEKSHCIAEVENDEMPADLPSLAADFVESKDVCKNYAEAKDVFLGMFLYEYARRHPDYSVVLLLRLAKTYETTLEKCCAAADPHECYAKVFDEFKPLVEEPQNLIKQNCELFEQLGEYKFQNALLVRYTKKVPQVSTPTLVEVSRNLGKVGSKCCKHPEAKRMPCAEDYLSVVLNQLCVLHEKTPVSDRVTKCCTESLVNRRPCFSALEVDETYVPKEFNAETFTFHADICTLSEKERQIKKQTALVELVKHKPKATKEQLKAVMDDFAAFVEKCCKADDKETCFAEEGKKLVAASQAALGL
(§5) The measurements were repeated at three temperatures (27, 32, and 37 °C) to mimic the body temperature and to allow for the calculation of the thermodynamic parameters of binding using the vant’t Hoff equation (Equation (2)):(2) lnKb=−ΔHb/RT+ΔSb/R where ΔHb, ΔSb, and ΔGb represent the change in the enthalpy, entropy, and free energy of the binding process, respectively.

The next assay concerns the target T1, BSA (Bos taurus, UniProt P02769).
T1 construct: purchased Merck
Kind of assay: Competitive spectrofluorometric measurements with warfarin. To be noted: for number of binding sites (n), competitive measurements with warfarin: BSA with equimolar warfarin; for BSA subdomain the complex binds to: concluded from competition with warfarin. Type of assay: binding, bovine. The procedure:
as §4
The competitive measurements were performed in the presence of warfarin, a site-specific marker for BSA subdomain IIA [33]. The equimolar concentrations of BSA and warfarin were prepared (5 × 10^−6 M), and after 30 min of incubation, the titrations using the solutions of the investigated complexes were conducted. The final concentrations of the added complexes were the same as for the previous experiments.

Assay [13] concerns the target T2, bovine serum albumin (BSA) (Bos taurus, UniProt P02769).
T2 construct: purchased Merck
Kind of assay: Spectrofluorometric titration, binding to BSA. To be noted: for ΔHb / ΔSb: van't Hoff, 300-310 K. On the procedure:
as §4, §5

Like-named read-outs stand apart in the source and are kept apart here. A value given as a limit tells only on which side of the number the result lay.

T1 sequence (P02769 25-607): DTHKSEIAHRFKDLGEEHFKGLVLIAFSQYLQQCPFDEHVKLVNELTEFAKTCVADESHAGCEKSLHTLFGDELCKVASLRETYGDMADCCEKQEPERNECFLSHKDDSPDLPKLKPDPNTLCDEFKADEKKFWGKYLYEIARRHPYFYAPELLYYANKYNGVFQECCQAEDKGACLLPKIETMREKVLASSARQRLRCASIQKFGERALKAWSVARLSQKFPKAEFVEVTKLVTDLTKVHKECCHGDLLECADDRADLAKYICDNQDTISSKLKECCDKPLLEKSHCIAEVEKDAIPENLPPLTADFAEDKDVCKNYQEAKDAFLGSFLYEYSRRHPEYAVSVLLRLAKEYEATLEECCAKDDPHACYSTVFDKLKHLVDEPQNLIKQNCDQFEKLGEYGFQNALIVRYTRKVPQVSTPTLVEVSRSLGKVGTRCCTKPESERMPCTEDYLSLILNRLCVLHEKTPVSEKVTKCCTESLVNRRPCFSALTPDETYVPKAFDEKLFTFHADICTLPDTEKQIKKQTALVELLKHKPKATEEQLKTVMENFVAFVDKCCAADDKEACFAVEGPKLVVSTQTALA
T2 sequence (P02769 25-607): as above

As to `N.N.[Cl][Pt][Cl]` [cisplatin], in the assay with MCF-7 breast cancer [1], the IC50 (usually the concentration that gives 50% inhibition) was 33.6 ± 4.8 µM.
With `Cc1[nH+]cc(CO)c(C=NNC(N)=S)c1[O-].Cc1[nH+]cc(CO)c(C=NNC(N)=S)c1[O-].O.O=[N+]([O-])[O-].O=[N+]([O-])[O-].[Ni+2]` [Ni-PLTSC, Ni-pyridoxal-thiosemicarbazone], the IC50 (with A2780 ovarian cancer [2]; in the assay with MRC5 lung fibroblasts [3]; with MCF-7 breast cancer [4]; in assay [5]; in the assay on A375 melanoma [6]; with A2780 ovarian cancer [7]) was over 100 µM in each case. In addition, the IC50 (with MRC5 lung fibroblasts [8]; in the assay on MCF-7 breast cancer [9]; in assay [10]; in the assay on A375 melanoma [11]) was over 100 µM in each case. In addition, the “n (number of binding places)” value in [12] (T 300 K), in assay [12] (T 305 K), in [12] (T 310 K), in assay [13] (T 300 K), in assay [13] (T 305 K) and in assay [13] (T 310 K) was 1.2 throughout. For the same molecule, the ΔGb in assay [12] (T 300 K) is -37.1 kJ/mol; in assay [12] (T 305 K), -37.2 kJ/mol; in [12] (T 310 K), -37.2 kJ/mol; in assay [13] (T 300 K), -41.7 kJ/mol; in assay [13] (T 305 K), -41.0 kJ/mol; in assay [13] (T 310 K) it was -40.4 kJ/mol. The figures for the ΔHb in assay [12] and in assay [13] were -31.4 kJ/mol and -79.4 kJ/mol, respectively. For the same molecule, the ΔSb in assay [12] is on record as 15.5 J mol^−1 K^−1; in assay [13], −126 J mol^−1 K^−1. The “number of binding sites (n), competitive measurements with warfarin” value (“number of binding sites (n)” below) at BSA amounted to 1.30. In addition, the “BSA subdomain the complex binds to” value on BSA is recorded as “subdomain IIIA”.
For the molecule `Cc1[nH+]cc(CO)c(C=NN=C(N)[S-])c1[O-].Cc1[nH+]cc(CO)c(C=NN=C(N)[S-])c1[O-].O.[Cl-].[Co+3]` [Co-PLTSC], the IC50 (with A2780 ovarian cancer [2]; in the assay on MRC5 lung fibroblasts [3]; in the assay with MCF-7 breast cancer [4]; in assay [5]; in the assay on A375 melanoma [6]; in the assay with A2780 ovarian cancer [7]) was over 100 µM in each case. Besides, the IC50 (in the assay on MRC5 lung fibroblasts [8]; with MCF-7 breast cancer [9]; in assay [10]; in the assay with A375 melanoma [11]) was over 100 µM each time. In addition, the “n (number of binding places)” value in assay [12] (T 300 K) amounted to 1.0; in assay [12] (T 305 K), 1.0; in assay [12] (T 310 K) it was 1.0; in [13] (T 300 K), 1.1; in assay [13] (T 305 K), 1.1; in [13] (T 310 K) it was 1.1. For the same molecule, the ΔGb in assay [12] (T 300 K) is -28.2 kJ/mol; in assay [12] (T 305 K), -28.9 kJ/mol; in assay [12] (T 310 K), -29.5 kJ/mol; in assay [13] (T 300 K), -30.7 kJ/mol; in assay [13] (T 305 K), -32.4 kJ/mol; in assay [13] (T 310 K), -34.1 kJ/mol. The results for the ΔHb in assay [12] and in assay [13] were 12.7 kJ/mol and 70.3 kJ/mol, respectively. This molecule registered a ΔSb in [12] of 136 J mol^−1 K^−1. Also, the “number of binding sites (n)” value on BSA was 1.01. The “Binding constant (Kb), competitive measurements with warfarin” value on BSA (BSA with equimolar warfarin (5 × 10^−6 M), 30 min incubation) stood at 52500 M⁻¹. Moreover, the “reduction percentages of the binding constants” value on BSA (BSA with warfarin vs without warfarin) is on record as 10%. Besides, the “BSA subdomain the complex binds to” value at BSA was “subdomains IIA and IIB”.
With `Cc1[nH+]cc(CO)c(C=NNC(N)=S)c1[O-].O.[Cl-].[Cl-].[Cl-].[Fe+3]` [Fe-PLTSC, [Fe(PLTSC)Cl2(H2O)]Cl], the IC50 is 86.3 ± 13.1 µM with A2780 ovarian cancer [2]; over 100 µM in the assay on MRC5 lung fibroblasts [3]; over 100 µM in the assay with MCF-7 breast cancer [4]; over 100 µM in [5]; over 100 µM in the assay with A375 melanoma [6]; 93.5 ± 9.2 µM in the assay on A2780 ovarian cancer [7]. Besides, the IC50 (in the assay on MRC5 lung fibroblasts [8]; in the assay on MCF-7 breast cancer [9]; in assay [10]; in the assay with A375 melanoma [11]) was over 100 µM throughout. The “n (number of binding places)” value in assay [12] (T 300 K) is given as 1.2; in [12] (T 305 K), 1.2; in [12] (T 310 K), 1.1; in [13] (T 300 K), 1.1; in assay [13] (T 305 K), 1.1; in [13] (T 310 K), 1.1. Further, the ΔGb was -33.8 kJ/mol in assay [12] (T 300 K); -35.4 kJ/mol in assay [12] (T 305 K); -36.9 kJ/mol in assay [12] (T 310 K); -29.4 kJ/mol in [13] (T 300 K); -30.2 kJ/mol in [13] (T 305 K); -30.9 kJ/mol in assay [13] (T 310 K). In addition, the ΔHb was 58.3 kJ/mol in [12] and 15.5 kJ/mol in [13]. Besides, the ΔSb turned out to be 307 J mol^−1 K^−1 in [12] and 149 J mol^−1 K^−1 in assay [13]. Moreover, the “number of binding sites (n)” value on BSA is 1.10. In addition, the “BSA subdomain the complex binds to” value at BSA is given as “subdomain IIIA”.

(Values after paper PMC10419307, “The Effect of Metal Ions (Fe, Co, Ni, and Cu) on the Molecular-Structural, Protein Binding, and Cytotoxic Properties of Metal Pyridoxal-Thiosemicarbazone Complexes” (International Journal of Molecular Sciences, 2023).)
